What was measured:
bedstraw = assay: Test B pre/postemergence bedstraw; format: in vivo, Galium aparine
How it was run: (§1)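 Response is a visual 0-to-10 score relative to untreated plants, where 0 means no effect and 10 means complete control, taken twelve to sixteen days after application. Treatments went onto soil at planting and onto foliage of 1- to 4-leaf plants, using a surfactant-containing non-phytotoxic solvent.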

morningglory = assay: Test B pre/postemergence morningglory; format: in vivo, Ipomoea hederacea
How it was run: as §1

velvetleaf = assay: Test B pre/postemergence velvetleaf; format: in vivo, Abutilon theophrasti; details: for Plant response rating, Velvetleaf: Rate 500 g/ha
How it was run: as §1

wild oat = assay: Test B pre/postemergence wild oat; format: in vivo, Avena fatua; details: for Plant response rating, Wild oats: Rate 500 g/ha
How it was run: as §1

[1] = Preemergence, Rate 62 g/ha, scale of 0 to 10 where 0 is no effect and 10 is complete control
[2] = Preemergence, Rate 125 g/ha, 0 is no effect, 10 is complete control
[3] = Preemergence, Rate 250 g/ha, scale 0 to 10, 0 is no effect, 10 is complete control
[4] = Preemergence, Rate 500 g/ha, scale of 0 to 10 where 0 is no effect and 10 is complete control
[5] = Rate 62 g/ha, Postemergence, scale of 0 to 10 where 0 is no effect and 10 is complete control
[6] = Rate 125 g/ha, Postemergence, scale 0 to 10
[7] = Rate 500 g/ha, Postemergence, scale 0 to 10
[8] = Preemergence, scale of 0 to 10 where 0 is no effect and 10 is complete control
[9] = Rate 125 g/ha, Preemergence, scale of 0 to 10 where 0 is no effect and 10 is complete control
[10] = Preemergence, Rate 250 g/ha, scale of 0 to 10 where 0 is no effect and 10 is complete control

| SMILES | Bedstraw plant response rating (bedstraw; [1]) | Plant response rating, Bedstraw (bedstraw; [4]) | Bedstraw plant response rating (bedstraw; [5]) | Bedstraw plant response rating (bedstraw; [6]) | Plant response rating (0 to 10; 0 is no effect, 10 is complete control), Bedstraw (bedstraw; Rate 250 g/ha, Postemergence) | Morningglory plant response rating (morningglory; [1]) | Plant response rating, Morningglory (morningglory; [4]) | Morningglory plant response rating (morningglory; [5]) | Morningglory plant response rating (morningglory; [6]) | Plant response rating (0 to 10; 0 is no effect, 10 is complete control), Morningglory (morningglory; Rate 250 g/ha, Postemergence) | Morningglory plant response rating (morningglory; [7]) | Velvetleaf plant response rating (velvetleaf; [1]) | Plant response rating, Velvetleaf (velvetleaf; [8]) | Velvetleaf plant response rating (velvetleaf; [5]) | Velvetleaf plant response rating (velvetleaf; [6]) | Plant response rating (0 to 10; 0 is no effect, 10 is complete control), Velvetleaf (velvetleaf; Rate 250 g/ha, Postemergence) | Wild oats plant response rating (wild oat; [1]) | Plant response rating, Wild oats (wild oat; [8]) | Wild oats plant response rating (wild oat; [5]) | Wild oats plant response rating (wild oat; [6]) | further results |
| --- | --- | --- | --- | --- | --- | --- | --- | --- | --- | --- | --- | --- | --- | --- | --- | --- | --- | --- | --- | --- | --- |
| CC(C)N(C(=O)n1oc(=O)n(Cc2ccco2)c1=O)c1ccc(Cl)cc1 [Compound 206] | 0 | 0 | 0 | 0 | 0 | 0 | 0 | 1 | 1 | 2 | 5 | 0 | 0 | 0 | 0 | 0 | 0 | 0 | 0 | 0 | Bedstraw plant response rating (0 to 10 scale) (bedstraw; [2]): 0; Bedstraw plant response rating (bedstraw; [3]): 0; Bedstraw plant response rating (bedstraw; [7]): 0; Morningglory plant response rating (0 to 10 scale) (morningglory; [2]): 0; Morningglory plant response rating (morningglory; [3]): 0; Velvetleaf plant response rating (velvetleaf; [3]): 0; Wild oats plant response rating (wild oat; [3]): 0; Plant response rating (0 to 10; 0 is no effect, 10 is complete control), Wild oats (wild oat; Rate 250 g/ha, Postemergence): 0 |
| CC(C)N(C(=O)n1oc(=O)n(CC=Cc2ccccc2)c1=O)c1ccc(F)cc1 [Compound 210] | 0 | 0 | 0 | 2 | 4 | 0 | 0 | 2 | 2 | 3 | 7 | 0 | 0 | 0 | 0 | 2 | 0 | 2 | 0 | 0 | Bedstraw plant response rating (bedstraw; [3]): 0; Bedstraw plant response rating (bedstraw; [9]): 0; Morningglory plant response rating (morningglory; [3]): 0; Morningglory plant response rating (morningglory; [9]): 0; Velvetleaf plant response rating (velvetleaf; [3]): 0; Velvetleaf plant response rating (velvetleaf; [9]): 0; Wild oats plant response rating (wild oat; [3]): 2; Wild oats plant response rating (wild oat; [9]): 0; Plant response rating (0 to 10; 0 is no effect, 10 is complete control), Wild oats (wild oat; Rate 250 g/ha, Postemergence): 0 |
| CCOC(=O)C=CCn1c(=O)on(C(=O)N(c2ccc(F)cc2)C(C)C)c1=O [Compound 214] | 0 | 0 | 0 | 0 | 2 | 0 | 0 | 2 | 3 | 6 | 7 | 0 | 0 | 0 | 0 | 0 | 0 | 0 | 0 | 0 | Bedstraw plant response rating (bedstraw; [10]): 0; Bedstraw plant response rating (bedstraw; [9]): 0; Bedstraw plant response rating (bedstraw; [7]): 8; Morningglory plant response rating (morningglory; [10]): 0; Morningglory plant response rating (morningglory; [9]): 0; Velvetleaf plant response rating (velvetleaf; [10]): 0; Velvetleaf plant response rating (velvetleaf; [9]): 0; Wild oats plant response rating (wild oat; [10]): 0; Wild oats plant response rating (wild oat; [9]): 0; Plant response rating (0 to 10; 0 is no effect, 10 is complete control), Wild oats (wild oat; Rate 250 g/ha, Postemergence): 0 |
| COC(=O)Cn1c(=O)on(C(=O)N(c2ccc(F)cc2)C(C)C)c1=O [Compound 215] | 0 | 0 | 0 | 0 | 6 | 0 | 0 | 0 | 2 | 3 | 3 | 0 | 0 | 0 | 0 | 0 | 0 | 2 | 0 | 0 | Bedstraw plant response rating (bedstraw; [10]): 0; Bedstraw plant response rating (bedstraw; [9]): 0; Bedstraw plant response rating (bedstraw; [7]): 8; Morningglory plant response rating (morningglory; [10]): 0; Morningglory plant response rating (morningglory; [9]): 0; Velvetleaf plant response rating (velvetleaf; [10]): 0; Velvetleaf plant response rating (velvetleaf; [9]): 0; Wild oats plant response rating (wild oat; [10]): 2; Wild oats plant response rating (wild oat; [9]): 0; Plant response rating (0 to 10; 0 is no effect, 10 is complete control), Wild oats (wild oat; Rate 250 g/ha, Postemergence): 2 |
